This note sets out measurements from ChEMBL document CHEMBL1153583, “Organocatalytic synthesis and sterol 14alpha-demethylase binding interactions of enantioriched 3-(1H-1,2,4-triazol-1-yl)butyl benzoates” (Bioorg Med Chem Lett, 2009).

The experiment can be described thus: Binding affinity to Penicillium digitatum CYP51 expressed in Escherichia coli by UV-visible spectrophotometry.

In turn, `CC(CCOC(=O)c1ccccc1)n1cncn1` (racemic) displayed a Kd of 1180 nM.

Turning to `C[C@@H](CCOC(=O)c1cccc(Cl)c1)n1cncn1`, binding was put at a Kd of 472 nM.

The compound `C[C@@H](CCOC(=O)c1ccc(Cl)cc1)n1cncn1` registered a Kd of 988 nM.

In turn, `C[C@H](CCOC(=O)c1cccc(Cl)c1)n1cncn1` registered a Kd of 2360 nM.

The compound `CC(C)(C)C(O)/C(=C/c1ccc(Cl)cc1Cl)n1cncn1` (centres undefined) [DINICONAZOLE] gave a Kd of 247 nM.

Regarding `CC(CCOC(=O)c1ccccc1Cl)n1cncn1` (racemic), the Kd is 1120 nM.

`C[C@@H](CCOC(=O)c1ccccc1Cl)n1cncn1` yielded a Kd of 560 nM.

In the case of `C[C@@H](CCOC(=O)c1ccc(Cl)cc1Cl)n1cncn1`, binding was characterised by a dissociation constant (Kd) of 452 nM.

Compound `Cc1ccc(C(=O)OCC[C@@H](C)n2cncn2)cc1` displayed a Kd of 338 nM.

Compound `CC(CCOC(=O)c1ccc(Cl)cc1)n1cncn1` (racemic) came in with a Kd of 1380 nM.

Turning to `C[C@H](CCOC(=O)c1ccccc1Cl)n1cncn1`, the Kd turned out to be 580 nM.

Turning to `C[C@@H](CCOC(=O)c1ccccc1)n1cncn1`, the affinity, expressed as Kd, was 1420 nM.

Compound `CC(CCOC(=O)c1cccc(Cl)c1)n1cncn1` (racemic) had a Kd of 743 nM.

For `CC(C)(C)C(=O)C(Oc1ccc(Cl)cc1)n1cncn1` (centres undefined) [TRIADIMEFON], the Kd was found to be 936 nM.

On to `Cc1ccc(C(=O)OCCC(C)n2cncn2)cc1` (racemic), for which the equilibrium dissociation constant (Kd) came out at 1740 nM.

As for `Cc1ccc(C(=O)OCC[C@H](C)n2cncn2)cc1`, the affinity, expressed as Kd, was 10500 nM.

In turn, `CC(CCOC(=O)c1ccc(Cl)cc1Cl)n1cncn1` (racemic) yielded a Kd of 973 nM.

For the compound `C[C@H](CCOC(=O)c1ccc(Cl)cc1)n1cncn1`, binding was characterised by a dissociation constant (Kd) of 682 nM. This Kd and that of the compound before are within 1.5-fold of each other.

In the case of `C[C@H](CCOC(=O)c1ccccc1)n1cncn1`, the Kd was found to be 1620 nM.

For orientation: Kd means the free concentration of one partner at which half of the binding sites on the other are occupied at equilibrium, for simple one-to-one binding. A low value points to a tighter complex.
